Data on one molecule can be found in US8691856B2 (Eli Lilly and Company, priority 2005, dated 2014).

pKi: −log10 of the molar value.

The test deals with cloned human glucagon receptor (Homo sapiens (Human), UniProt P47871). Briefly: Glucagon Receptor (hGlucR) Binding Assay.
cloned human glucagon receptor, sequence (P47871 26-477): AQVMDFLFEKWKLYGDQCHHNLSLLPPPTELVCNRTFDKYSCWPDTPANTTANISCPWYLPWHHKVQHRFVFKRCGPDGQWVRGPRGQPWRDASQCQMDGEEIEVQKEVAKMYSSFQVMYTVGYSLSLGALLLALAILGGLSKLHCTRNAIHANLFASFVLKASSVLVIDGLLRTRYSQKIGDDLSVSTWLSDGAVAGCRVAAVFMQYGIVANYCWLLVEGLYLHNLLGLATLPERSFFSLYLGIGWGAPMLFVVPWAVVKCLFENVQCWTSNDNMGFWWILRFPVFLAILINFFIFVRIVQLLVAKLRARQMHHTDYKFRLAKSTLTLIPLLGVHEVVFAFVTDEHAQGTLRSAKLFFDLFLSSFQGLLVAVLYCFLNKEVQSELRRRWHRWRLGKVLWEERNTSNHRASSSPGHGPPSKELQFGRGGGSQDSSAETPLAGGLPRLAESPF

Procedure: The hGlucuR cDNA is subcloned into the expression plasmid phD (Trans-activated expression of fully gamma-carboxylated recombinant human protein C, an antithrombotic factor. Grinnell, B. W., Berg, D. T., Walls, J. and Yan, S. B. Bio/Technology 5: 1189-1192 (1987)). This plasmid DNA is transfected into 293 HEK cells and selected with 200 μg/mL Hygromycin.
Crude plasma membranes are prepared using cells from suspension culture. The cells are lysed on ice in hypotonic buffer containing 25 mM Tris HCL, pH 7.5, 1 mM MgCl2, DNAse1, 20 u/mL, and Roche Complete Inhibitors-without EDTA. The cell suspension is homogenized with a glass dounce homogenizer using a Teflon pestle for 25 strokes. The homogenate is centrifuged at 4 degrees C. at 1800×g for 15 mins. The supernate is collected and the pellet is resuspended in hypotonic buffer and rehomogenized. The mixture is centrifuged at 1800×g for 15 mins. The second supernate is combined with the first supernate. The combined supernates are recentrifuged at 1800×g for 15 mins to clarify. The clarified supernate is transferred to high speed tubes and centrifuged at 25000×g for 30 minutes at 4 degrees C. […]
The binding buffer contains 25 mM Hepes, pH 7.4, 2.5 mM CaCl2, 1 mM MgCl2, 0.1% fatty acid free BSA, (ICN), 0.003% tween-20, and Roche Complete Inhibitors without EDTA. […] Plates are read with a MicroBeta after 14 hours of settling time at room temp. […]

By pKi is commonly meant the negative decadic logarithm of the Ki, by convention in mol/L. Higher therefore signals a low Ki. With `Cc1cc(OC(CCC(C)(C)C)c2ccc(C(=O)Nc3nnn[nH]3)cc2)cc(C)c1-c1ccc(C(F)(F)F)cc1` (stereo not shown), the negative-log Ki (pKi) was 7.03.
